# Key:
# [1] = molecular target: full-length NS3 HCV protease 1b tethered with NS4A cofactor (Hepatitis C virus genotype 1b, UniProt Q9WMX2); assay: NS3/NS4a Protease Enzyme Assay; format: biochemical
# Method: HCV protease activity and inhibition is assayed using an internally quenched fluorogenic substrate. A DABCYL and an EDANS group are attached to opposite ends of a short peptide. Quenching of the EDANS fluorescence by the DABCYL group is relieved upon proteolytic cleavage. Fluorescence is measured with a Molecular Devices Fluoromax (or equivalent) using an excitation wavelength of 355 nm and an emission wavelength of 485 nm.
# The assay is run in Corning white half-area 96-well plates (VWR 29444-312 [Corning 3693]) with full-length NS3 HCV protease 1b tethered with NS4A cofactor (final enzyme concentration 1 to 15 nM). The assay buffer is complemented with 10 μM NS4A cofactor Pep 4A (Anaspec 25336 or in-house, MW 1424.8). RET S1 (Ac-Asp-Glu-Asp(EDANS)-Glu-Glu-Abu-[COO]Ala-Ser-Lys-(DABCYL)-NH2, AnaSpec 22991, MW 1548.6) is used as the fluorogenic peptide substrate. The assay buffer contains 50 mM Hepes at pH 7.5, 30 mM NaCl and 10 mM BME. The enzyme reaction is followed over a 30 minutes time course at room temperature in the absence and presence of inhibitors.
# The peptide inhibitors HCV Inh 1 (Anaspec 25345, MW 796.8) Ac-Asp-Glu-Met-Glu-Glu-Cys-OH, [−20° C.] and HCV Inh 2 (Anaspec 25346, MW 913.1) Ac-Asp-Glu-Dif-Cha-Cys-OH, are used as reference compounds.
# IC50 values are calculated using XLFit in ActivityBase (IDBS) using equation 205: y=A+((B−A)/(1+((C/x)^D))).
# [2] = test system: HCV replicon RNA in Huh 11-7 cell line; assay: Cell-Based Replicon Assay; details: Hepatitis C virus, 96 h; Huh 11-7 cells, 4 days
# Method: Quantification of HCV replicon RNA (HCV Cell Based Assay) is accomplished using the Huh 11-7 cell line (Lohmann, et al Science 285:110-113, 1999). Cells are seeded at 4×10^3 cells/well in 96 well plates and fed media containing DMEM (high glucose), 10% fetal calf serum, penicillin-streptomycin and non-essential amino acids. Cells are incubated in a 7.5% CO2 incubator at 37° C. At the end of the incubation period, total RNA is extracted and purified from cells using Ambion RNAqueous 96 Kit (Catalog No. AM1812). To amplify the HCV RNA so that sufficient material can be detected by an HCV specific probe (below), primers specific for HCV (below) mediate both the reverse transcription of the HCV RNA and the amplification of the cDNA by polymerase chain reaction (PCR) using the TaqMan One-Step RT-PCR Master Mix Kit (Applied Biosystems catalog no. 4309169). The nucleotide sequences of the RT-PCR primers, which are located in the NS5B region of the HCV genome, are the following:
# Detection of the RT-PCR product is accomplished using the Applied Biosystems (ABI) Prism 7500 Sequence Detection System (SDS) that detects the fluorescence that is emitted when the probe, which is labeled with a fluorescence reporter dye and a quencher dye, is degraded during the PCR reaction. The increase in the amount of fluorescence is measured during each cycle of PCR and reflects the increasing amount of RT-PCR product. Specifically, quantification is based on the threshold cycle, where the amplification plot crosses a defined fluorescence threshold. […] The data is analyzed using the ABI SDS program version 1.7. […]
# The RT-PCR product was detected using the following labeled probe: […]
# To normalize the data to an internal control molecule within the cellular RNA, RT-PCR is performed on the cellular messenger RNA glyceraldehyde-3-phosphate dehydrogenase (GAPDH). […] GAPDH RT-PCR is performed on the same RNA sample from which the HCV copy number is determined. […] The ratio of HCV/GAPDH RNA is used to calculate the activity of compounds evaluated for inhibition of HCV RNA replication. […]
# [3] = Pharmacokinetic analysis, single oral dose in rat; details: in vivo, single oral dose of 20 mg/kg
# Chain of full-length NS3 HCV protease 1b tethered with NS4A cofactor (Q9WMX2 1027-1657, other chains not shown): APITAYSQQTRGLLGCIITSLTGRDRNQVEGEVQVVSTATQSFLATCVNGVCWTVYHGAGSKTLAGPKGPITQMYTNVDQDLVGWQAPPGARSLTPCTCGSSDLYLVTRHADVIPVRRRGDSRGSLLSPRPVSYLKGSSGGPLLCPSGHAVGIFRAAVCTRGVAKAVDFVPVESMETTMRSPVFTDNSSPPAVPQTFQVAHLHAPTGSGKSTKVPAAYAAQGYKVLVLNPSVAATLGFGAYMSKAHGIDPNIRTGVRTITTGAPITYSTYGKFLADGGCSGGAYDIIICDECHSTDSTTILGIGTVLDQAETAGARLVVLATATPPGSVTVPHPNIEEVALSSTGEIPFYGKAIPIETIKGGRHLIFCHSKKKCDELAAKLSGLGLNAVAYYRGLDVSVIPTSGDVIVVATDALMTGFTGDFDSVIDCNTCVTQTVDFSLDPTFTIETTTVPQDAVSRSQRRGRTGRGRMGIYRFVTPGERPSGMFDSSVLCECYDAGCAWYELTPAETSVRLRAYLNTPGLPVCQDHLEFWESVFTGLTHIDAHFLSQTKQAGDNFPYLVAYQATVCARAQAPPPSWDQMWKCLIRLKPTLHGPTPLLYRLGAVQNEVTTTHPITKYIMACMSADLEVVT
Structure (SMILES),IC50 [1] [nM],EC50 [2] [nM],AUC [3] [ng·h/mL],Cmax [3] [ng/mL],bioavailability [3] [%]
COc1ccc(-c2nnn(C3CC4C(=O)NC5(C(=O)NS(=O)(=O)C6CC6)CC5C=CCCCCCC(NC(=O)OC5CCCC5)C(=O)N4C3)n2)cc1 (stereo not drawn) [Example 36],0.1,0.8,52900,16100,76
COc1ccc(-n2nnc(C3CC4C(=O)NC5(C(=O)NS(=O)(=O)C6CC6)CC5C=CCCCCCC(NC(=O)OC5CCCC5)C(=O)N4C3)n2)cc1 (stereo not drawn) [Example 101],0.4,0.8,–,–,–
O=C(NC1CCCCCC=CC2CC2(C(=O)NS(=O)(=O)C2CC2)NC(=O)C2CC(n3nnc(-c4cccc5ccccc45)n3)CN2C1=O)OC1CCCC1 (stereo not drawn) [Example 117],0.2,0.8,–,–,–

# From patent US8785377B2, “Tetrazolyl macrocyclic hepatitis C serine protease inhibitors” (Enanta Pharmaceuticals, Inc., priority 2006, dated 2014)
